Data from publication PMC7156458, “Synthetic biology based construction of biological activity-related library of fungal decalin-containing diterpenoid pyrones” (Nature Communications, 2020).

Molecular target: Aβ42 (Homo sapiens, UniProt P05067)
Test: Th-T (thioflavin-T) assay of Aβ42 aggregation
Format: biochemical
Conditions: for Th-T assay plate reading, mean of three wells (Supplementary Fig. 47): source data, Ab alone and No Ab as controls

Sequence of Aβ42 (P05067 672-713): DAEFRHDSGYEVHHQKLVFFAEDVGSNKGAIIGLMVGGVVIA

C=C1CC[C@H]2[C@]3(C)C[C@H](C=C(C)C)O[C@H]3CC[C@]2(C)[C@@H]1Cc1c(OC)oc(CO)c(C)c1=O [Compound 18]
Th-T fluorescence, mean of three wells (Aβ42 aggregation time course, reading M117): 3.827 | Th-T fluorescence, mean of three wells (Aβ42 aggregation time course, reading M118): 3.826 | Th-T fluorescence, mean of three wells (Aβ42 aggregation time course, reading M119): 3.802 | Th-T fluorescence, mean of three wells (Aβ42 aggregation time course, reading M120): 3.809 | Th-T fluorescence, mean of three wells (Aβ42 aggregation time course, reading M121): 3.768 | Th-T fluorescence, mean of three wells (Aβ42 aggregation time course, reading M122): 3.8239 | Th-T fluorescence, mean of three wells (Aβ42 aggregation time course, reading M123): 3.779 | Th-T fluorescence, mean of three wells (Aβ42 aggregation time course, reading M124): 3.775 | Th-T fluorescence, mean of three wells (Aβ42 aggregation time course, reading M125): 3.791 | Th-T fluorescence, mean of three wells (Aβ42 aggregation time course, reading M126): 3.753 | Th-T fluorescence, mean of three wells (Aβ42 aggregation time course, reading M127): 3.782 | Th-T fluorescence, mean of three wells (Aβ42 aggregation time course, reading M128): 3.792 | Th-T fluorescence, mean of three wells (Aβ42 aggregation time course, reading M129): 3.762 | Th-T fluorescence, mean of three wells (Aβ42 aggregation time course, reading M130): 3.763 | Th-T fluorescence, mean of three wells (Aβ42 aggregation time course, reading M131): 3.755 | Th-T fluorescence, mean of three wells (Aβ42 aggregation time course, reading M132): 3.815 | Th-T fluorescence, mean of three wells (Aβ42 aggregation time course, reading M133): 3.777 | Th-T fluorescence, mean of three wells (Aβ42 aggregation time course, reading M134): 3.764 | Th-T fluorescence, mean of three wells (Aβ42 aggregation time course, reading M135): 3.756 | Th-T fluorescence, mean of three wells (Aβ42 aggregation time course, reading M136): 3.746 | Th-T fluorescence, mean of three wells (Supplementary Fig. 47, reading M137): 3.774 | Th-T fluorescence, mean of three wells (Supplementary Fig. 47, reading M138): 3.771 | Th-T fluorescence, mean of three wells (Supplementary Fig. 47, reading M139): 3.713 | Th-T fluorescence, mean of three wells (Supplementary Fig. 47, reading M140): 3.758 | Th-T fluorescence, mean of three wells (Supplementary Fig. 47, reading M141): 3.7322 | Th-T fluorescence, mean of three wells (Supplementary Fig. 47, reading M142): 3.721 | Th-T fluorescence, mean of three wells (Supplementary Fig. 47, reading M143): 3.695 | Th-T fluorescence, mean of three wells (Supplementary Fig. 47, reading M144): 3.702 | Th-T fluorescence, mean of three wells (Supplementary Fig. 47, reading M145): 3.716 | Th-T fluorescence, mean of three wells (Supplementary Fig. 47 source data, measurement M37 of time course): 3.803 | Th-T fluorescence, mean of three wells (Supplementary Fig. 47 source data, measurement M38 of time course): 3.788 | Th-T fluorescence, mean of three wells (Supplementary Fig. 47 source data, measurement M39 of time course): 3.823 | Th-T fluorescence, mean of three wells (Supplementary Fig. 47 source data, measurement M40 of time course): 3.844 | Th-T fluorescence, mean of three wells (Supplementary Fig. 47 source data, measurement M41 of time course): 3.831 | Th-T fluorescence, mean of three wells (Supplementary Fig. 47 source data, measurement M42 of time course): 3.8461 | Th-T fluorescence, mean of three wells (Supplementary Fig. 47 source data, measurement M43 of time course): 3.853 | Th-T fluorescence, mean of three wells (Supplementary Fig. 47 source data, measurement M44 of time course): 3.884 | Th-T fluorescence, mean of three wells (Supplementary Fig. 47 source data, measurement M45 of time course): 3.893 | Th-T fluorescence, mean of three wells (Supplementary Fig. 47 source data, measurement M46 of time course): 3.909 | Th-T fluorescence, mean of three wells (Supplementary Fig. 47 source data, measurement M47 of time course): 3.912 | Th-T fluorescence, mean of three wells (Supplementary Fig. 47 source data, measurement M48 of time course): 3.912 | Th-T fluorescence, mean of three wells (Supplementary Fig. 47 source data, measurement M49 of time course): 3.934 | Th-T fluorescence, mean of three wells (Supplementary Fig. 47 source data, measurement M50 of time course): 3.962 | Th-T fluorescence, mean of three wells (Supplementary Fig. 47 source data, measurement M51 of time course): 3.932 | Th-T fluorescence, mean of three wells (Supplementary Fig. 47 source data, measurement M52 of time course): 3.964 | Th-T fluorescence, mean of three wells (Supplementary Fig. 47 source data, measurement M53 of time course): 3.941 | Th-T fluorescence, mean of three wells (Supplementary Fig. 47 source data, measurement M54 of time course): 3.968 | Th-T fluorescence, mean of three wells (Supplementary Fig. 47 source data, measurement M55 of time course): 3.9543 | Th-T fluorescence, mean of three wells (Supplementary Fig. 47 source data, measurement M56 of time course): 4.004 | Th-T assay plate reading, mean of three wells (Supplementary Fig. 47) (measurement M1): 0.2027 | Th-T assay plate reading, mean of three wells (Supplementary Fig. 47) (measurement M2): 0.2169 | Th-T assay plate reading, mean of three wells (Supplementary Fig. 47) (measurement M3): 0.2567 | Th-T assay plate reading, mean of three wells (Supplementary Fig. 47) (measurement M4): 0.2868 | Th-T assay plate reading, mean of three wells (Supplementary Fig. 47) (measurement M5): 0.363 | Th-T assay plate reading, mean of three wells (Supplementary Fig. 47) (measurement M6): 0.3665 | Th-T assay plate reading, mean of three wells (Supplementary Fig. 47) (measurement M7): 0.43 | Th-T assay plate reading, mean of three wells (Supplementary Fig. 47) (measurement M8): 0.4699 | Th-T assay plate reading, mean of three wells (Supplementary Fig. 47) (measurement M9): 0.5243 | Th-T assay plate reading, mean of three wells (Supplementary Fig. 47) (measurement M10): 0.5956 | Th-T assay plate reading, mean of three wells (Supplementary Fig. 47) (measurement M11): 0.7582 | Th-T assay plate reading, mean of three wells (Supplementary Fig. 47) (measurement M12): 1.169 | Th-T assay plate reading, mean of three wells (Supplementary Fig. 47) (measurement M13): 1.941 | Th-T assay plate reading, mean of three wells (Supplementary Fig. 47) (measurement M14): 2.67 | Th-T assay plate reading, mean of three wells (Supplementary Fig. 47) (measurement M15): 3.082 | Th-T assay plate reading, mean of three wells (Supplementary Fig. 47) (measurement M16): 3.287 | Th-T fluorescence, mean of three wells (reading M17, Supplementary Fig. 47 source data): 3.39 | Th-T fluorescence, mean of three wells (reading M18, Supplementary Fig. 47 source data): 3.467 | Th-T fluorescence, mean of three wells (reading M19, Supplementary Fig. 47 source data): 3.485 | Th-T fluorescence, mean of three wells (reading M20, Supplementary Fig. 47 source data): 3.511 | Th-T fluorescence, mean of three wells (reading M21, Supplementary Fig. 47 source data): 3.555 | Th-T fluorescence, mean of three wells (reading M22, Supplementary Fig. 47 source data): 3.568 | Th-T fluorescence, mean of three wells (reading M23, Supplementary Fig. 47 source data): 3.6 | Th-T fluorescence, mean of three wells (reading M24, Supplementary Fig. 47 source data): 3.61 | Th-T fluorescence, mean of three wells (reading M25, Supplementary Fig. 47 source data): 3.637 | Th-T fluorescence, mean of three wells (reading M26, Supplementary Fig. 47 source data): 3.637 | Th-T fluorescence, mean of three wells (reading M27, Supplementary Fig. 47 source data): 3.663 | Th-T fluorescence, mean of three wells (reading M28, Supplementary Fig. 47 source data): 3.673 | Th-T fluorescence, mean of three wells (reading M29, Supplementary Fig. 47 source data): 3.697 | Th-T fluorescence, mean of three wells (reading M30, Supplementary Fig. 47 source data): 3.695 | Th-T fluorescence, mean of three wells (reading M31, Supplementary Fig. 47 source data): 3.715 | Th-T fluorescence, mean of three wells (reading M32, Supplementary Fig. 47 source data): 3.7502 | Th-T fluorescence, mean of three wells (reading M33, Supplementary Fig. 47 source data): 3.748 | Th-T fluorescence, mean of three wells (reading M34, Supplementary Fig. 47 source data): 3.745 | Th-T fluorescence, mean of three wells (reading M35, Supplementary Fig. 47 source data): 3.779 | Th-T fluorescence, mean of three wells (reading M36, Supplementary Fig. 47 source data): 3.8 | Th-T fluorescence, mean of three wells (time course, reading M57): 3.991 | Th-T fluorescence, mean of three wells (time course, reading M58): 4.013 | Th-T fluorescence, mean of three wells (time course, reading M59): 3.958 | Th-T fluorescence, mean of three wells (time course, reading M60): 3.988 | Th-T fluorescence, mean of three wells (time course, reading M61): 3.973 | Th-T fluorescence, mean of three wells (time course, reading M62): 3.97 | Th-T fluorescence, mean of three wells (time course, reading M63): 3.951 | Th-T fluorescence, mean of three wells (time course, reading M64): 3.976 | Th-T fluorescence, mean of three wells (time course, reading M65): 3.959 | Th-T fluorescence, mean of three wells (time course, reading M66): 3.962 | Th-T fluorescence, mean of three wells (time course, reading M67): 3.958 | Th-T fluorescence, mean of three wells (time-course reading M97, Supplementary Fig. 47 source data): 3.893 | Th-T fluorescence, mean of three wells (time-course reading M98, Supplementary Fig. 47 source data): 3.89 | Th-T fluorescence, mean of three wells (time-course reading M99, Supplementary Fig. 47 source data): 3.924 | Th-T fluorescence, mean of three wells (time-course reading M100, Supplementary Fig. 47 source data): 3.864 | Th-T fluorescence, mean of three wells (time-course reading M101, Supplementary Fig. 47 source data): 3.863 | Th-T fluorescence, mean of three wells (time-course reading M102, Supplementary Fig. 47 source data): 3.862 | Th-T fluorescence, mean of three wells (time-course reading M103, Supplementary Fig. 47 source data): 3.898 | Th-T fluorescence, mean of three wells (time-course reading M104, Supplementary Fig. 47 source data): 3.892 | Th-T fluorescence, mean of three wells (time-course reading M105, Supplementary Fig. 47 source data): 3.876 | Th-T fluorescence, mean of three wells (time-course reading M106, Supplementary Fig. 47 source data): 3.8607 | Th-T fluorescence, mean of three wells (time-course reading M107, Supplementary Fig. 47 source data): 3.854 | Th-T fluorescence, mean of three wells (time-course reading M108, Supplementary Fig. 47 source data): 3.8485 | Th-T fluorescence, mean of three wells (time-course reading M109, Supplementary Fig. 47 source data): 3.821 | Th-T fluorescence, mean of three wells (time-course reading M110, Supplementary Fig. 47 source data): 3.872 | Th-T fluorescence, mean of three wells (time-course reading M111, Supplementary Fig. 47 source data): 3.799 | Th-T fluorescence, mean of three wells (time-course reading M112, Supplementary Fig. 47 source data): 3.848 | Th-T fluorescence, mean of three wells (time-course reading M113, Supplementary Fig. 47 source data): 3.819 | Th-T fluorescence, mean of three wells (time-course reading M114, Supplementary Fig. 47 source data): 3.862 | Th-T fluorescence, mean of three wells (time-course reading M115, Supplementary Fig. 47 source data): 3.831 | Th-T fluorescence, mean of three wells (time-course reading M116, Supplementary Fig. 47 source data): 3.8198
